The record followed here is the supplement of paper PMC8837787.

This experiment has as its system Saccharomyces cerevisiae ABC16-Green Monster. As to conditions: 18 h; 30 °C; YPD. An outline of the steps:
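Log-phase cultures of the drug-sensitive S. cerevisiae ABC16-Green Monster strain in YPD were dispensed at 200 µl per well into 96-well plates. They were exposed to eight 1:2 compound dilutions (final 0.1–150 μM) in biological duplicate, with untreated cultures in parallel, at 30 °C for 18 h. OD600 was read at 0 h and 18 h. IC50 was fitted to the background-subtracted OD600 by variable-slope nonlinear regression of log(inhibitor) versus response in GraphPad Prism.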

Counter-ions that a name gives are not always drawn.

`CN[C@H]1C[C@@H](N)[C@H](O)[C@@H](O[C@@H]2O[C@H](CO)[C@H](O)[C@@H]3O[C@@]4(O[C@H]23)O[C@H]([C@H](N)CO)[C@H](O)[C@H](O)[C@H]4O)[C@@H]1O` [Hygromycin B] displayed an IC50 growth inhibition of 13.8 µM.
The figure for `Cc1c(C)n(CCCN(C)C)c2ncn3nc(COc4ccccc4)nc3c12` is 39.6 µM; for `O=C1C=CC(=O)N1c1ccc(C2CCCCC2)cc1` it is 1.69 µM.
Next, `O=C([C@@H](c1ccc(Cl)cc1)c1cccnc1)N1CCN(c2ccc(C(F)(F)F)cc2)CC1`: 50 µM; `CCCn1c(NC(=O)c2ccc3ccccc3n2)nc2ccccc21`: 40 µM.
The figure for `O=C(Nc1ccc([N+](=O)[O-])cc1Cl)c1cc(Cl)ccc1O` [Niclosamide] is 1.53 µM; for `CNC(=O)c1nn(C)c2c1C(C)(C)Cc1cnc(Nc3ccc(N4CCN(C)CC4)cc3)nc1-2` [milciclib maleate] it is 84.1 µM.
Take `O=C(Nc1cccc(C(F)(F)F)c1)Nc1ncc([N+](=O)[O-])s1`: the IC50 growth inhibition came to 52.4 µM.
Next, `C=CCn1c(C)cc(C(=O)CSc2nc3ccccc3[nH]2)c1C`: 4.24 µM; `NC(=O)N1CCC(CC(=O)N2CCC([C@H]3c4ncc(Br)cc4CCc4cc(Cl)cc(Br)c43)CC2)CC1` [Lonarfanib]: 20.4 µM.
Next, `CCOc1cccc2sc(N(Cc3cccnc3)C(=O)C3CCCCC3)nc12`: 25.7 µM.
The figure for `CC(C)c1csc(NC(=O)c2cnn(-c3ccccc3F)c2C(F)(F)F)n1` is 31.3 µM; for `CC(c1ncncc1F)C(O)(Cn1cncn1)c1ccc(F)cc1F` (stereo unspecified) [Voriconazole] it is 0.18 µM.
As for `Cc1cc(C(=O)NCCc2cccc(F)c2)c(C)n1C(C)C`, the IC50 growth inhibition is 20.7 µM.
Next, `OC(Cn1cncn1)(Cn1cncn1)c1ccc(F)cc1F` [Fluconazole]: 3.14 µM; `Cc1cc(Nc2cccc(F)c2)nc(NCc2ccccc2)n1`: 21.9 µM; `O=C1Nc2ccc(F)cc2/C1=N/NC(=S)NC1CC2C=CC1C2` (stereo unspecified): 55.9 µM.
Next, `Oc1c(C(Nc2ccccn2)c2cccc(Cl)c2Cl)ccc2cccnc12` (stereo unspecified) [GNF-Pf-5250]: more than 150 µM; `Cc1ccc(Oc2ccc(NC(=O)CNc3ccccc3N3CCCC3=O)cc2)cc1`: 31.5 µM; `Cc1[nH]c2ccccc2c1C(c1cccs1)N1CCN(C)CC1` (stereo unspecified): 35.9 µM.
The figure for `CN1CCCN=C1C=Cc1cccs1.O=C(O)c1cc2ccccc2c(Cc2c(O)c(C(=O)O)cc3ccccc23)c1O` [Pyrantal Pamoate] is more than 75 µM; for `CCCc1cc(N2CCN(C)CC2)n2ncc(-c3ccccc3)c2n1` it is 47 µM; for `CC(=O)N(C1=C(N2CCOCC2)C(=O)c2ccccc2C1=O)c1ccc(I)cc1` [GNF-Pf-3703] it is 7.31 µM.
For `Cc1cc(C)nc(-n2nc(C)cc2Nc2ccccc2)n1`, the IC50 growth inhibition was found to be 42.1 µM.
The figure for `COc1ccc(-c2cnc3ccc(N4CCCC4)nn23)cc1OC` is 68.5 µM; for `N#C/C(=C\c1cn(Cc2ccccc2)nc1-c1cccnc1)c1nc2ccccc2[nH]1` it is 138 µM; for `COCCNc1cc(C(C)C)nc2c(-c3ccccc3)cnn12` it is 52.6 µM.
In the case of `Cc1nn(C(=O)Nc2cccc(C(F)(F)F)c2)c(C)c1Sc1ncccn1`, the IC50 growth inhibition worked out at 45 µM.
Compound `Cc1cc(Nc2nc(N[C@@H](C)c3ncc(F)cn3)ncc2Cl)n[nH]1` [AZD-1480] yielded an IC50 growth inhibition of 58.6 µM.
Next, `O=C1NCN(c2ccccc2)C12CCN(CCCC(c1ccc(F)cc1)c1ccc(F)cc1)CC2` [Fluspirilene]: 23.3 µM; `C[C@@H]1COCCN1c1cc(C2(S(C)(=O)=O)CC2)nc(-c2cccc3[nH]ccc23)n1` [AZ-20]: more than 75 µM; `CNc1ncc2cc(-c3cc(NC(=O)NCCC(C)(C)C)c(F)cc3C)c(C)nc2n1` [DP-4978]: more than 150 µM.
`Cn1ncc2c(NCc3ccc(-c4ccc(Cl)cc4)o3)ncnc21` gave an IC50 growth inhibition of 61.9 µM.
Next, `CCOc1ccc(-c2nc(CNCCc3ccc(F)cc3)cs2)cc1`: 42.5 µM; `C=C1CCC(O)CC1=CC=C1CCCC2(C)C1CCC2C(C)CCCC(C)(C)O` (stereo unspecified) [Calcifediol]: more than 150 µM; `CC1C=CC=CCCC=CC=CC=CC=CC(OC2OC(C)C(O)C(N)C2O)CC2OC(O)(CC(O)C(O)CCC(O)CC(O)CC(O)CC(=O)OC(C)C(C)C1O)CC(O)C2C(=O)O` (stereo unspecified) [Nystatin]: more than 75 µM.
`Cc1ccc(-n2nc(C(C)(C)C)cc2NC(=O)NCc2cc(F)ccc2Oc2ccc3c(cnn3CCO)c2)cc1` [Pexmetinib] yielded an IC50 growth inhibition of more than 75 µM.
The figure for `Cc1ccc2c(c1C)NC(=O)C21NN=C(c2ccccc2)S1` (stereo unspecified) is 10.2 µM.
The figure for `COc1cc(-c2cc(-c3ccc(S(C)(=O)=O)cc3)cnc2N)ccc1O` is 22 µM; for `CN(Cc1ccc(Cl)s1)C(=O)Cn1ncc(Br)c(Br)c1=O` it is 24.2 µM.
The figure for `N#CC(c1ccc(Cl)cc1)c1c(Cl)cc(-n2ncc(=O)[nH]c2=O)cc1Cl` (stereo unspecified) [Diclazuril] is 68.5 µM.
`FC(F)Sc1ccc2nc3ccccc3c(N3CCOCC3)c2c1` returned an IC50 growth inhibition of 30 µM.
Turning to `O=C(C1CCCCC1)N1CC(=O)N2CCc3ccccc3C2C1` (stereo unspecified) [Praziquantal], the IC50 growth inhibition is more than 75 µM.
The figure for `CN(C)c1cc(NC(=O)Nc2ccccc2)c2ccccc2n1` is 39.4 µM.
In turn, `CCOc1ccc(Oc2ccc(S(=O)(=O)NC(C)c3ccncc3)cc2)cc1` (stereo unspecified) yielded an IC50 growth inhibition of 51.1 µM.
The figure for `CN(C)c1oc(-c2ccc(Cl)cc2Cl)nc1[P+](c1ccccc1)(c1ccccc1)c1ccccc1` [GNF-Pf-2545] is 4.53 µM.
Next, `COc1cccc(-n2nnnc2S(=O)(=O)Cc2ccccc2)c1`: 16.1 µM.
For `CCOC(=O)NC(=O)c1ccsc1NC(=O)c1nc2ccccc2s1`, the IC50 growth inhibition worked out at 34.6 µM.
On to `CC(C)c1cc(NCc2ccccn2)n2ncc(-c3ccccc3)c2n1`, for which the IC50 growth inhibition came to 0.45 µM.
The figure for `COc1ccc(CN2CCN(C(c3ccc(F)cc3)c3ccc(F)cc3)CC2)c(OC)c1OC` [Lomerizine] is 14.2 µM; for `C(#Cc1ccc(-c2cc[nH]n2)s1)c1ccccc1` it is 18.9 µM; for `CC1CCCC=CC2CC(O)CC2C(O)C=CC(=O)O1` (stereo unspecified) [Brefeldin A] it is 31.9 µM.
Next, `Cc1c(C(=O)Nc2ccccc2O)cnn1-c1cccc(C(F)(F)F)c1`: 23.9 µM; `CC(C)=CCC/C(C)=C\CNCCNC1C2CC3CC(C2)CC1C3` (stereo unspecified): 18.2 µM.
Next, `CCCC(CCC)C(=O)O` [Valproic acid]: more than 75 µM; `COC1C(OC(N)=O)C(O)C(Oc2ccc3c(O)c(NC(=O)c4ccc(O)c(CC=C(C)C)c4)c(=O)oc3c2C)OC1(C)C` (stereo unspecified) [Novobiocin]: more than 75 µM.
